What was measured:
[1] = test system: DLD1 NRF2-GOF; test: TC50 cytotoxicity; higher = less toxic; conditions: 72 h; CellTox Green cytotoxicity
Summary of the method: (§1)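 Isogenic DLD1 colorectal cancer cells, either NRF2 wild-type or CRISPR gain-of-function, were grown in DMEM with 10% FBS. They were exposed in 384-well plates to library compounds at 5 concentrations spanning a 10,000-fold range. After 72 h, cytotoxicity was read by CellTox Green on a Pherastar FS reader and normalised to vehicle wells and 100-μM positive-control wells. TC50 and drug sensitivity score (a normalised area under the curve) came from logistic dose-response fits.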

[2] = test system: DLD1 NRF2-WT; test: TC50 cytotoxicity; higher = less toxic; conditions: 72 h; CellTox Green cytotoxicity
Summary of the method: as §1

[3] = test system: DLD1 NRF2-GOF; test: drug sensitivity score (DSS) cytotoxicity (DSS score); higher = more toxic; extreme values may be limits of the assay; conditions: 72 h; CellTox Green cytotoxicity
Summary of the method: as §1

[4] = test system: DLD1 NRF2-WT; test: as above; conditions: 72 h; CellTox Green cytotoxicity
Summary of the method: as §1

[5] = test system: DLD1 NRF2-WT; conditions: 72 h; CellTiter-Glo viability
Summary of the method: (§2)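 DLD1 colorectal cancer cells, an isogenic pair either NRF2 wild-type or carrying a CRISPR gain-of-function, were cultured in DMEM with 10% FBS and treated in 384-well plates with library compounds at 5 concentrations across a 10,000-fold range. CellTiter-Glo viability was read on a Pherastar FS reader after 72 h and normalised to vehicle wells and 100-μM positive-control wells. Four-parameter logistic dose-response fits were applied. EC50 and drug sensitivity score, a normalised area under the curve, were taken from these fits.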

[6] = test system: DLD1 NRF2-GOF; test: drug sensitivity score (DSS) viability (DSS score); higher = more sensitive; extreme values may be limits of the assay; conditions: 72 h; CellTiter-Glo viability
Summary of the method: as §2

[7] = test system: DLD1 NRF2-WT; test: as above; conditions: 72 h; CellTiter-Glo viability
Summary of the method: as §2

| Structure (SMILES) | EC50 viability [5] [nM] | TC50 cytotoxicity [1] [µM] | TC50 cytotoxicity [2] [µM] | drug sensitivity score [3] | drug sensitivity score [4] | drug sensitivity score [6] | drug sensitivity score [7] |
| --- | --- | --- | --- | --- | --- | --- | --- |
| Cc1c(N)nc([C@H](CC(N)=O)NC[C@H](N)C(N)=O)nc1C(=O)N[C@H](C(=O)N[C@H](C)[C@@H](O)[C@H](C)C(=O)N[C@H](C(=O)NCCc1nc(-c2nc(C(=O)NCCC[S+](C)C)cs2)cs1)[C@@H](C)O)[C@@H](O[C@@H]1O[C@@H](CO)[C@@H](O)[C@H](O)[C@@H]1O[C@H]1O[C@H](CO)[C@@H](O)[C@H](OC(N)=O)[C@@H]1O)c1c[nH]cn1 [Bleomycin] | > 10000 | > 10 | > 10 | 0 | 0 | 2.6 | 0.4 |
| Clc1ccccc1C(c1ccccc1)(c1ccccc1)n1cccn1 [TRAM-34] | > 1000 | – | – | – | – | 6.4 | 2.2 |
| COc1cc2ncnc(Oc3cccc(NC(=O)Nc4cc(C(C)(C)C(F)(F)F)on4)c3)c2cc1OC | > 10000 | > 10 | > 10 | 0 | 0 | 0.6 | 1.4 |
| CNC(=O)c1cc(COc2nnc(Nc3ccc(Cl)cc3)c3ccoc23)ccn1 [Telatinib] | – | > 10 | > 10 | 0 | 0 | 2.6 | 6.9 |
| C#Cc1cccc(Nc2ncnc3cc4c(cc23)OCCOCCOCCO4)c1 [Icotinib] | 1540 | > 10 | > 10 | 0 | 0 | 0.7 | 2.5 |
| CCc1c(C(=O)C(N)=O)c2c(OCC(=O)O)cccc2n1Cc1ccccc1 [Varespladib] | 1220 | > 10 | > 10 | 0 | 0 | 0.8 | 3.9 |
| CONC(=O)c1ccccc1Nc1cc(Nc2cc(C)nn2C(C)C)ncc1Cl | – | > 1 | > 1 | 0 | 0 | 1.6 | – |
| O=C1Cc2cc(C(=O)NC3C[C@H]4CC[C@@H](C3)N4S(=O)(=O)CC3CCN(CCCC(F)(F)F)CC3)c(Cl)cc2N1 (stereo partly specified) | > 10000 | > 10 | > 10 | 0 | 0 | 4.1 | 0 |
| Cc1nc2cccc(N)c2c(=O)n1C1CCC(=O)NC1=O (stereo unspecified) [CC122] | > 10000 | > 10 | > 10 | 0 | 0 | 2.7 | 3.2 |
| Cc1nn(C)c(COc2ccc(N3CCN(S(=O)(=O)N(C)C)CC3)cc2)c1-c1cccc2c(CCCOc3cccc4ccccc34)c(C(=O)O)n(CCN3CCOCC3)c12 | > 50000 | > 50 | > 50 | 0 | 0 | 2.1 | 1.9 |
| O=c1[nH]c(C2CCCN2)nc2c1oc1ccc(Cl)cc12 (stereo unspecified) | > 10000 | > 10 | > 10 | 0 | 0 | 0.7 | 0.9 |
| COc1cc2/c(=N/c3ccc(Br)cc3F)nc[nH]c2cc1OCC1CCN(C)CC1 [Vandetanib] | – | > 1 | > 1 | 0 | 0 | 2.3 | 6.9 |
| Cc1cccc(CC(=O)N2CCc3c2ccc(-c2cn(C)c4ncnc(N)c24)c3F)n1 | 808 | > 2.5 | > 2.5 | 0 | 0 | – | 2.5 |

The next lines start with results.

| EC50 viability [5] [nM] | Structure (SMILES) | TC50 cytotoxicity [1] [µM] | TC50 cytotoxicity [2] [µM] | drug sensitivity score [3] | drug sensitivity score [4] | drug sensitivity score [6] | drug sensitivity score [7] |
| --- | --- | --- | --- | --- | --- | --- | --- |
| > 10000 | CC[C@H](C)C(=O)O[C@H]1C[C@@H](C)C=C2C=C[C@H](C)[C@H](CC[C@@H]3C[C@@H](O)CC(=O)O3)[C@H]21 [Lovastatin] | > 10 | > 10 | 0 | 0 | 5.2 | 0 |
| > 10000 | CC1(C)NC(=O)N(c2ccc([N+](=O)[O-])c(C(F)(F)F)c2)C1=O [Nilutamide] | > 10 | > 10 | 0 | 0 | 3.6 | 0 |
| 59.5 | CC(C)(O)CC(=O)NCCn1ccc2ncnc(Nc3ccc(Oc4cccc(C(F)(F)F)c4)c(Cl)c3)c21 [TAK-285] | > 2.5 | > 2.5 | 0 | 0 | 3.7 | 5.4 |
| 33.4 | FC(F)(F)c1ccc(/C=C/c2nc(COc3ccc(CCCCn4ccnn4)cc3)co2)cc1 [Mubritinib] | > 1 | > 1 | 0 | 0 | 2.4 | 7.4 |
| 565 | CC1(C)CNc2cc(NC(=O)c3cccnc3NCc3ccncc3)ccc21 [Motesanib] | > 10 | > 10 | 0 | 0 | 3.1 | 4.5 |
| 138 | COCCNCc1ccc(-c2cc3nccc(Oc4ccc(NC(=O)C5(C(=O)Nc6ccc(F)cc6)CC5)cc4F)c3s2)nc1 [Sitravatinib] | > 2.5 | > 2.5 | 0 | 0 | 5.5 | 4.6 |
| 4360 | CC/C(=C(\c1ccccc1)c1ccc(OCCN(C)C)cc1)c1ccccc1 [Tamoxifen] | > 10 | > 10 | 0 | 0 | – | 2 |
| > 2500 | CCCCCCCCCCCCCCCCCCOP(=O)([O-])OC1CC[N+](C)(C)CC1 [Perifosine] | > 2.5 | > 2.5 | 0.6 | 0.9 | – | 0.3 |

Source: the supplement of paper PMC7600603
